Target: β-glucosidase B (BglB) (Paenibacillus polymyxa, UniProt P22505)
Test: hydrolysis monitored at […] nm, Michaelis-Menten nonlinear fit
Type: biochemical
Settings: 0-100 mM substrate, 15 min

β-glucosidase B (BglB), sequence (P22505 whole entry): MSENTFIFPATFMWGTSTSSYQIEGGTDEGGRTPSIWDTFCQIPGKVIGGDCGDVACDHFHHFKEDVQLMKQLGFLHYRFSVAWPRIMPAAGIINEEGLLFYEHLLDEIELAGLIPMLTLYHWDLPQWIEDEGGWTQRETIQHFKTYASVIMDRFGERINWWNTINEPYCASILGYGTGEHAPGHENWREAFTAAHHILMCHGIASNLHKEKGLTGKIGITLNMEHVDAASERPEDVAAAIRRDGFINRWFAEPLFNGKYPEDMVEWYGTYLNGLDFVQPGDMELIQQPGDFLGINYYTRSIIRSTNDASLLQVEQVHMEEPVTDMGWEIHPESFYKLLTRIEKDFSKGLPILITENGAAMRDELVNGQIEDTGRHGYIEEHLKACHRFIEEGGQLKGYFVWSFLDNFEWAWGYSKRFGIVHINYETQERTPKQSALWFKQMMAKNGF

`O=[N+]([O-])c1ccc(O[C@@H]2O[C@H](CO)[C@@H](O)[C@H](O)[C@H]2O)cc1` [pPNG, 4-nitrophenyl-β-D-glucopyranoside] showed a Km of 5 ± 0.3 mM.

From publication doi:10.1101/2025.11.24.690255v1 (biorxiv, 2025)
